Data: ChEMBL document CHEMBL3991601, “The target landscape of clinical kinase drugs” (Science, 2017)
The source made the active and inactive calls. Cut-off read from the data, not from the text of the source, for most assays here: actives have a measured Kd and inactives only a lower limit.

Key:
[1] = molecular target: T1, Adenine phosphoribosyltransferase (Homo sapiens, UniProt P07741)
T1 sequence (P07741 whole entry): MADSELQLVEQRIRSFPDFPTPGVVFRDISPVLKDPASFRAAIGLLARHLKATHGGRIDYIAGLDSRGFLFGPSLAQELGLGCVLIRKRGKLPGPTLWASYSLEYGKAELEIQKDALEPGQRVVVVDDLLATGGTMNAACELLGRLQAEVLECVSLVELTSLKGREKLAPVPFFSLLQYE

[2] = molecular target: Mitotic checkpoint serine/threonine-protein kinase BUB1 (Homo sapiens, UniProt O43683)
Sequence of Mitotic checkpoint serine/threonine-protein kinase BUB1 (O43683 whole entry): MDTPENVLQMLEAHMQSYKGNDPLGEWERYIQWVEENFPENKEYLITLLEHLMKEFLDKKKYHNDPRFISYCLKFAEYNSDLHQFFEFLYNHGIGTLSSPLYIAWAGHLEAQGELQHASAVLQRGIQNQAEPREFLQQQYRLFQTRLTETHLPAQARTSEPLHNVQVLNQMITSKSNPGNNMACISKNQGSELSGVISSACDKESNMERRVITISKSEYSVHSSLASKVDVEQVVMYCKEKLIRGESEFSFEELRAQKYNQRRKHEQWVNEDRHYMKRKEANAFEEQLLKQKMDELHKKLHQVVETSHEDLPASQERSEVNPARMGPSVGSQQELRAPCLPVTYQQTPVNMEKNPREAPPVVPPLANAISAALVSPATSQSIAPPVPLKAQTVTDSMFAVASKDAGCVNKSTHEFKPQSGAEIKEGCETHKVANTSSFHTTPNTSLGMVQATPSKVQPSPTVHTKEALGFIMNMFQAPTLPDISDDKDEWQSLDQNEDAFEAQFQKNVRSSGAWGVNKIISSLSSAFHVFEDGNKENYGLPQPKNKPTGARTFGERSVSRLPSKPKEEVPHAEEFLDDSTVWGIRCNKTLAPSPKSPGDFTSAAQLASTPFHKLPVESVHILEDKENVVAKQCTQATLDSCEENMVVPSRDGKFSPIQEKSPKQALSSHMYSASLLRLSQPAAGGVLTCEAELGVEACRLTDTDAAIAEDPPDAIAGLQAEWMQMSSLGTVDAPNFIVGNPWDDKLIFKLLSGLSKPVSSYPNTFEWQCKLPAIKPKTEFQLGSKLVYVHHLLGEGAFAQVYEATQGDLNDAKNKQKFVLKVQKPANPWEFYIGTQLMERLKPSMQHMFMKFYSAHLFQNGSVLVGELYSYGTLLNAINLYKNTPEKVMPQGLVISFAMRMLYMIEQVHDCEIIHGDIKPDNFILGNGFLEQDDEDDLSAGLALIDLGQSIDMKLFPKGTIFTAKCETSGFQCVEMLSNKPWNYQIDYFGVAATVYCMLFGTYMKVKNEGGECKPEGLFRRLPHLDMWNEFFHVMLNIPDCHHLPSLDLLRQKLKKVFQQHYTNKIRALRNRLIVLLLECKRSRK

[3] = molecular target: T2, Interleukin-1 receptor-associated kinase 3 (Homo sapiens, UniProt Q9Y616)
T2 sequence (Q9Y616 whole entry): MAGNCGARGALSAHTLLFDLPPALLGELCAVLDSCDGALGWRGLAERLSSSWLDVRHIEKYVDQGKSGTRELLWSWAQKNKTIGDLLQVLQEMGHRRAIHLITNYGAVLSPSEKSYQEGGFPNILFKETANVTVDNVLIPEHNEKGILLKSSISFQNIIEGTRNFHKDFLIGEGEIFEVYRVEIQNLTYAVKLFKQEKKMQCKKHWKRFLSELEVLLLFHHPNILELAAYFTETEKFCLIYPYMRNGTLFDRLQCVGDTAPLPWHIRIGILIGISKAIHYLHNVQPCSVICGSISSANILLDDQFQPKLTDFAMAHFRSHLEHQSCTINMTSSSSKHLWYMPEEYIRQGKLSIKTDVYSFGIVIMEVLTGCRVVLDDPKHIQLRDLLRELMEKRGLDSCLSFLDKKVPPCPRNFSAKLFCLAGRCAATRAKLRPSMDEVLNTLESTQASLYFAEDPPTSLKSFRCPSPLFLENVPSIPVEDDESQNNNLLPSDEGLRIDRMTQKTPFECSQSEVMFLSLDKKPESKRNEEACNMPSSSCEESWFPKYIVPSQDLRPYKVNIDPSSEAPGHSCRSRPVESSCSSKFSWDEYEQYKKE

[4] = molecular target: Protein kinase C alpha type (Homo sapiens, UniProt P17252)
[5] = molecular target: Protein kinase C beta type (Homo sapiens, UniProt P05771)
Sequence of Protein kinase C beta type (P05771 whole entry): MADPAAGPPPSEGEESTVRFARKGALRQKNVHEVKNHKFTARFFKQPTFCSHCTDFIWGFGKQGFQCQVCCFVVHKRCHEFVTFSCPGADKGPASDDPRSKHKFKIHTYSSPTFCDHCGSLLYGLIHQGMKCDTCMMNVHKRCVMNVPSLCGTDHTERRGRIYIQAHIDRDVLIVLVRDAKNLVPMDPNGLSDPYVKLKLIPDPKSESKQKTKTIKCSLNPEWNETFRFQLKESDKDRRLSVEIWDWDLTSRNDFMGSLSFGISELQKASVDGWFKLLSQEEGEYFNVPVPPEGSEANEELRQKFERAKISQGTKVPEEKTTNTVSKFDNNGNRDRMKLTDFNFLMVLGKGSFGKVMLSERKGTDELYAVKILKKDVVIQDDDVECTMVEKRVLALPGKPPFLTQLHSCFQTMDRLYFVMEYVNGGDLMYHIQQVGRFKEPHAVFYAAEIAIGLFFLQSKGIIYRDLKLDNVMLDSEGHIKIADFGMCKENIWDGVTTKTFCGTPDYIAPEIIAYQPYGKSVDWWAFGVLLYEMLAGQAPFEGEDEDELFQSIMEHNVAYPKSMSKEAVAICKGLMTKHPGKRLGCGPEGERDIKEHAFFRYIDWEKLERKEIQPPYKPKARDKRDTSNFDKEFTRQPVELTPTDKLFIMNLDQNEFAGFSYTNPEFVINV

[6] = molecular target: 26S proteasome regulatory subunit 6B (Homo sapiens, UniProt P43686)
Sequence of 26S proteasome regulatory subunit 6B (P43686 whole entry): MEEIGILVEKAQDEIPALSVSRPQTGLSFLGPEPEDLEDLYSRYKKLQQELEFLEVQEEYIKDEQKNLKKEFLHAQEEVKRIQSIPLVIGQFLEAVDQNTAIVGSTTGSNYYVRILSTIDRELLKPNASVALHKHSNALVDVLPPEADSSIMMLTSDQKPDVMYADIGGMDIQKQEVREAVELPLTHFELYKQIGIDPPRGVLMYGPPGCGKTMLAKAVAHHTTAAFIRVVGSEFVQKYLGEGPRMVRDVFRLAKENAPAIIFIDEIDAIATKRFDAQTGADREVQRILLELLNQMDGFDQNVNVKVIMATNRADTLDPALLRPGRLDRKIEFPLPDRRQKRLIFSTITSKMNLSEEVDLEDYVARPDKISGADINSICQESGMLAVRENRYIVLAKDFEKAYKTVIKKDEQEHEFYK

[7] = molecular target: Ribosomal protein S6 kinase alpha-5 (Homo sapiens, UniProt O75582)
Sequence of Ribosomal protein S6 kinase alpha-5 (O75582 whole entry): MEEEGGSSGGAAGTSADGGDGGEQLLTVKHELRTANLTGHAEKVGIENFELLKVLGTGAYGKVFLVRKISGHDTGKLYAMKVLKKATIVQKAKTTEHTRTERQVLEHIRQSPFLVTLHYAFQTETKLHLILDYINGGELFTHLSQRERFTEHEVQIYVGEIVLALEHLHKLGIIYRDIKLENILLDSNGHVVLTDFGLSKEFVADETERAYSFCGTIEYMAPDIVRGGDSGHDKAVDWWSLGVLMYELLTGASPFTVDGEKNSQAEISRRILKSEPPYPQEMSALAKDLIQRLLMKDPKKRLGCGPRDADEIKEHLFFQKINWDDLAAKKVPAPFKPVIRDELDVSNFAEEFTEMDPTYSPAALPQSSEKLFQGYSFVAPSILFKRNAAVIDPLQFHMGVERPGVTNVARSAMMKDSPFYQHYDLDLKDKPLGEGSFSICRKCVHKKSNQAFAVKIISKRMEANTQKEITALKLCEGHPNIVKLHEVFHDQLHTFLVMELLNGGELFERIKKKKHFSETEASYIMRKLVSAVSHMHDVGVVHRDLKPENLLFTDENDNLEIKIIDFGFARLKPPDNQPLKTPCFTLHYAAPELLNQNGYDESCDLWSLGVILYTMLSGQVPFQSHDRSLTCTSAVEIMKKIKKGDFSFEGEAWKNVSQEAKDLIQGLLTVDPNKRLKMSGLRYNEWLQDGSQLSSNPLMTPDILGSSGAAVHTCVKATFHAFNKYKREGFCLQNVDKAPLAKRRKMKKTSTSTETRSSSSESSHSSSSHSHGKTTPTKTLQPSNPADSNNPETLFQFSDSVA

[8] = molecular target: Serine/threonine-protein kinase SIK2 (Homo sapiens, UniProt Q9H0K1)
Sequence of Serine/threonine-protein kinase SIK2 (Q9H0K1 whole entry): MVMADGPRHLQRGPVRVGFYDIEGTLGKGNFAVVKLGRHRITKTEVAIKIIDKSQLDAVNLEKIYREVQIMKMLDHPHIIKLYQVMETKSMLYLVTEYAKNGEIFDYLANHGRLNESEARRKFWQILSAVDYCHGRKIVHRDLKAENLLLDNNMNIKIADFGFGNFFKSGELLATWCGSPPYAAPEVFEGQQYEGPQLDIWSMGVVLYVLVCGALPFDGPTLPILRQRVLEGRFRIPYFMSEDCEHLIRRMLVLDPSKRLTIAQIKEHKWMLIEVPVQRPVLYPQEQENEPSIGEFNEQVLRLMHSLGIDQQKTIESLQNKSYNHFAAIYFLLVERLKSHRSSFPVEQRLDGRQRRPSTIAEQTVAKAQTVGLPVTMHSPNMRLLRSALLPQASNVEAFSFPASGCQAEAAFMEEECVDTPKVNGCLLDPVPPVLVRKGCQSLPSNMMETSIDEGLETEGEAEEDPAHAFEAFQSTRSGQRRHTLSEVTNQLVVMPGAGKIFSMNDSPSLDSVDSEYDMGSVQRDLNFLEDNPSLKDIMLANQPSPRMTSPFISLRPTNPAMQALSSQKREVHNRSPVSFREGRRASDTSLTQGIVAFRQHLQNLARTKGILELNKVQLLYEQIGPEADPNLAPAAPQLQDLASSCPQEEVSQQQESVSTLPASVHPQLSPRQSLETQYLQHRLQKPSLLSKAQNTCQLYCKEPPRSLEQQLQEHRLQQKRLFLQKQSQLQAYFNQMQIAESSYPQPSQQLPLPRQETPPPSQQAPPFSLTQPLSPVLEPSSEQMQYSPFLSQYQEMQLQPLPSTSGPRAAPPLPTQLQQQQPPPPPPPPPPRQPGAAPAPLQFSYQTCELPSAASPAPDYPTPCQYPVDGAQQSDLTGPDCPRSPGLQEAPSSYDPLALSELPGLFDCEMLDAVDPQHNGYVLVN

[9] = molecular target: T3, ADP/ATP translocase 2 (Homo sapiens, UniProt P05141)
T3 sequence (P05141 whole entry): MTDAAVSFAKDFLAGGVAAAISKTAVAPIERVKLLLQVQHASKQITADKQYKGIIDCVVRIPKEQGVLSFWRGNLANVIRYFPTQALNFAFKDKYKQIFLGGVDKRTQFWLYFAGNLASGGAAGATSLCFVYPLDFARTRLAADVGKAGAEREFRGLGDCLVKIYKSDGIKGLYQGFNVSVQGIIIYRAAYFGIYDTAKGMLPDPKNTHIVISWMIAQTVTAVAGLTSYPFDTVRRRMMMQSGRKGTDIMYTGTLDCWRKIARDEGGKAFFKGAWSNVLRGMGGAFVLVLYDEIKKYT

[10] = molecular target: T4, Tyrosine-protein kinase Tec (Homo sapiens, UniProt P42680)
T4 sequence (P42680 whole entry): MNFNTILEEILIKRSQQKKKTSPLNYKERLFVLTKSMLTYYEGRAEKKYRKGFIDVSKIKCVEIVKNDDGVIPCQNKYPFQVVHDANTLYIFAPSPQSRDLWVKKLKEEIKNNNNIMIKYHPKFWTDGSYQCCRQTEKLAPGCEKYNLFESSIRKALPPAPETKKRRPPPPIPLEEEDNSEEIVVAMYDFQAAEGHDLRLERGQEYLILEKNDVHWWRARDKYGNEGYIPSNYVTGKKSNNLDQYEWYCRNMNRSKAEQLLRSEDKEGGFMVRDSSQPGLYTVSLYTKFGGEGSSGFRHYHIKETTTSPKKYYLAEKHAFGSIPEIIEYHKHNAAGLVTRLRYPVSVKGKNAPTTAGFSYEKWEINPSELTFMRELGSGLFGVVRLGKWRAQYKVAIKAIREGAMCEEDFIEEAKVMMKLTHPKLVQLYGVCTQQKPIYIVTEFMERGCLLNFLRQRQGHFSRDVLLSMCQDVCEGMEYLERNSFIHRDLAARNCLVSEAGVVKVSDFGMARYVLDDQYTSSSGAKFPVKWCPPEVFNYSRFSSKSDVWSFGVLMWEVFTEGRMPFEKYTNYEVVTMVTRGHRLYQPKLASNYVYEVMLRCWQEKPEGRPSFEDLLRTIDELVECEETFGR

[11] = molecular target: T5, EKC/KEOPS complex subunit TP53RK (Homo sapiens, UniProt Q96S44)
T5 sequence (Q96S44 whole entry): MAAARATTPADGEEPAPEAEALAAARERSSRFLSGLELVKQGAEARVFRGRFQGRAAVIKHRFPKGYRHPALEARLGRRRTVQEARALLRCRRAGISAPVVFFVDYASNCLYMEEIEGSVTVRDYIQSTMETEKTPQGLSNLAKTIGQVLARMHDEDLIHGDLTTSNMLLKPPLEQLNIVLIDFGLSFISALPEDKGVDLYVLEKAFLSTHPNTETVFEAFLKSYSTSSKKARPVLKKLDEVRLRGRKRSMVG
Note: in the data inactive means no Kd found up to 30 µM.

SMILES	Kd [1]	Kd [2]	Kd [3]	Kd [4]	Kd [5]	Kd [6]	Kd [7]	Kd [8]	Kd [9]	Kd [10]	Kd [11]
N#CCNC(=O)c1ccc(-c2ccnc(Nc3ccc(N4CCOCC4)cc3)n2)cc1 [MOMELOTINIB]	> 30 µM (inactive)	> 30 µM (inactive)	> 30 µM (inactive)	> 30 µM (inactive)	> 30 µM (inactive)	> 30 µM (inactive)	> 30 µM (inactive)	0.79 µM (active)	> 30 µM (inactive)	> 30 µM (inactive)	> 30 µM (inactive)
C=CC(=O)Nc1cc(Nc2nccc(-c3cn(C)c4ccccc34)n2)c(OC)cc1N(C)CCN(C)C [OSIMERTINIB]	> 30 µM (inactive)	> 30 µM (inactive)	> 30 µM (inactive)	> 30 µM (inactive)	> 30 µM (inactive)	> 30 µM (inactive)	> 30 µM (inactive)	> 30 µM (inactive)	> 30 µM (inactive)	0.321 µM (active)	> 30 µM (inactive)
CC(C)CC(=O)Nc1[nH]nc2c1CN(C(=O)C1CCN(C)CC1)C2(C)C [PHA-793887]	> 30 µM (inactive)	> 30 µM (inactive)	> 30 µM (inactive)	> 30 µM (inactive)	> 30 µM (inactive)	> 30 µM (inactive)	> 30 µM (inactive)	> 30 µM (inactive)	> 30 µM (inactive)	> 30 µM (inactive)	> 30 µM (inactive)
O=C(NC[C@H](O)CO)c1ccncc1Nc1ccc(I)cc1F [PIMASERTIB]	> 30 µM (inactive)	> 30 µM (inactive)	> 30 µM (inactive)	> 30 µM (inactive)	> 30 µM (inactive)	> 30 µM (inactive)	> 30 µM (inactive)	> 30 µM (inactive)	> 30 µM (inactive)	> 30 µM (inactive)	> 30 µM (inactive)
COc1cc(F)c(F)c(Nc2ccc(I)cc2F)c1NS(=O)(=O)C1(C[C@H](O)CO)CC1 [REFAMETINIB]	> 30 µM (inactive)	> 30 µM (inactive)	> 30 µM (inactive)	> 30 µM (inactive)	> 30 µM (inactive)	> 30 µM (inactive)	> 30 µM (inactive)	> 30 µM (inactive)	> 30 µM (inactive)	> 30 µM (inactive)	> 30 µM (inactive)
COCCN1CCN(Cc2ccc(-c3n[nH]c4c3C(=O)c3c(NC(=O)NN5CCOCC5)cccc3-4)cc2)CC1 [RGB-286638]	> 30 µM (inactive)	> 30 µM (inactive)	> 30 µM (inactive)	> 30 µM (inactive)	> 30 µM (inactive)	> 30 µM (inactive)	> 30 µM (inactive)	0.207 µM (active)	> 30 µM (inactive)	> 30 µM (inactive)	1.72 µM (active)
O[C@H]1CC[C@H](Nc2ncc3nc(Nc4c(F)cc(F)cc4F)n([C@H]4CCOC4)c3n2)CC1 [TANZISERTIB]	> 30 µM (inactive)	> 30 µM (inactive)	> 30 µM (inactive)	> 30 µM (inactive)	> 30 µM (inactive)	> 30 µM (inactive)	> 30 µM (inactive)	> 30 µM (inactive)	> 30 µM (inactive)	> 30 µM (inactive)	> 30 µM (inactive)
C[C@@H]1COC(Nc2ccc3ncnc(Nc4ccc(OCc5nccs5)c(Cl)c4)c3c2)=N1 [VARLITINIB]	> 30 µM (inactive)	> 30 µM (inactive)	> 30 µM (inactive)	> 30 µM (inactive)	> 30 µM (inactive)	> 30 µM (inactive)	> 30 µM (inactive)	> 30 µM (inactive)	> 30 µM (inactive)	> 30 µM (inactive)	> 30 µM (inactive)
CNC(=O)c1cccc(-c2ccc3c(N4CCOC[C@@H]4C)nc(N4CCOC[C@@H]4C)nc3n2)c1 [VISTUSERTIB]	> 30 µM (inactive)	> 30 µM (inactive)	> 30 µM (inactive)	> 30 µM (inactive)	> 30 µM (inactive)	> 30 µM (inactive)	> 30 µM (inactive)	> 30 µM (inactive)	> 30 µM (inactive)	> 30 µM (inactive)	> 30 µM (inactive)
NC(=O)c1ccc(N(C(N)=O)c2c(F)cccc2F)nc1-c1ccc(F)cc1F [VX-702]	> 30 µM (inactive)	> 30 µM (inactive)	> 30 µM (inactive)	> 30 µM (inactive)	> 30 µM (inactive)	> 30 µM (inactive)	> 30 µM (inactive)	> 30 µM (inactive)	> 30 µM (inactive)	> 30 µM (inactive)	> 30 µM (inactive)
COc1cc2ncnc(Nc3ccc(O)cc3)c2cc1OC [WHI-P131]	> 30 µM (inactive)	> 30 µM (inactive)	> 30 µM (inactive)	> 30 µM (inactive)	> 30 µM (inactive)	> 30 µM (inactive)	> 30 µM (inactive)	> 30 µM (inactive)	> 30 µM (inactive)	> 30 µM (inactive)	> 30 µM (inactive)

Now from value to molecule:

Kd [1]	Kd [2]	Kd [3]	Kd [4]	Kd [5]	Kd [6]	Kd [7]	Kd [8]	Kd [9]	Kd [10]	Kd [11]	SMILES
> 30 µM (inactive)	> 30 µM (inactive)	> 30 µM (inactive)	> 30 µM (inactive)	> 30 µM (inactive)	> 30 µM (inactive)	> 30 µM (inactive)	> 30 µM (inactive)	> 30 µM (inactive)	> 30 µM (inactive)	> 30 µM (inactive)	COc1cccc2cc(-c3nc([C@H]4CC[C@H](C(=O)O)CC4)n4ncnc(N)c34)[nH]c12 [OSI-027]
> 30 µM (inactive)	> 30 µM (inactive)	> 30 µM (inactive)	> 30 µM (inactive)	> 30 µM (inactive)	> 30 µM (inactive)	> 30 µM (inactive)	> 30 µM (inactive)	> 30 µM (inactive)	> 30 µM (inactive)	> 30 µM (inactive)	O=C(Nc1ccc(OC(F)(F)F)cc1)c1sccc1NCc1ccnc2ccccc12 [OSI-930]
> 30 µM (inactive)	> 30 µM (inactive)	> 30 µM (inactive)	> 30 µM (inactive)	> 30 µM (inactive)	> 30 µM (inactive)	> 30 µM (inactive)	> 30 µM (inactive)	> 30 µM (inactive)	> 30 µM (inactive)	> 30 µM (inactive)	Cn1c(=O)c(F)c(Nc2ccc(I)cc2F)c2c(=O)n(C[C@@H](O)CO)cnc21 [TAK-733]
